Experimental findings from US6750332B1, “Salicyl alcohol derivatives” (Cognis Deutschland GmbH & Co. KG, priority 1999, dated 2004) are described below.

The test system of series [1] is prostaglandin synthesis in MSCP5 cells. Nature of the series: Inhibition of prostaglandin synthesis/release in keratinocytes (14C-arachidonic acid labelling). It counts as cell-based, mouse. As to conditions: 10 μm, incubated 2 hours. How it is done: Inhibition of Prostaglandin Synthesis by Salicin Derivatives (in Mouse or Human Skin Keratinocytes MSCP 5 or HPK II)
The cells were marked for 16 hours with 0.2 μCi ^14C-arachidonic acid ml^−1 medium. The test substances were added in fresh medium with increasing concentrations and incubated for 2 hours. In the Figure, the substances have the following meanings:
In the positive control NS398 (10 μm) for MSCP5 cells, prostaglandin synthesis is reduced by 85%. The prostaglandins were identified by comparison with reference substances and quantified by radiosensitometry. The result is expressed as the average value of three measurement points: MSCP 5: 100%=201 cpm; HPK II: 100%=63 cpm.

Series [2] in a line: HLB value (ratio of hydrophilic to hydrophobic component). It counts as physicochemical. An excerpt:
The salicyl alcohol derivatives according to the invention have valuable biological activities such as, for example, anti-inflammatory, antipyretic, antiphlogistic or analgesic effects. Thus, prostaglandin synthesis is inhibited to a greater extent with the compounds according to the invention than, for example, with compounds known from the literature, such as salicin, which is associated with the greater lipophilia of the compounds according to the invention. The better effect is dependent inter alia on efficient absorption by the cell membranes of the keratinocytes. The lipid solubility of glycosidic compounds derives from the ratio of hydrophilic component to hydrophobic component which is described by the HLB value. Salicin which has an HLB value of about 12 is more of a water-soluble molecule whereas salicin esters with HLB values of, in some cases, well below 10 are more liposoluble molecules.

Series [3] concerns human HPKII keratinocytes. The series is described as follows: Cytotoxicity, MTT test in human skin keratinocytes. Conditions: for toxicity to the cells (MTT test): human HPKII keratinocytes, concentrations showing inhibition of prostaglandin synthesis, incubation 1.5 or 20 h, confluent or subconfluent; for influence on the vitality of skin cells (keratinocytes), FIG. 1: incubated 20 h in culture medium, then MTT reduction test, cell line not given. It counts as cell-based. From the text: (§1) Cytotoxicity (in Mouse or Human Skin Keratinocytes, MSCP 5 or HPK II)
(§2) The toxicity of the substances was investigated by the MTT Test (Mosmann 1983) in cell cultures. This test is based on the conversion of the yellow tetrazolium salt MTT into the violet dye formazane. The reaction takes place only in living cells through the succinate dehydrogenase located in the inner mitochondrial membranes. On account of the potential use in cosmetic or pharmaceutical products, skin cells (human HPKII or mouse MSCP 5 keratinocytes) were used as the test system. […] The effect of the substances on the keratinocytes was independent of the time (incubation time 1.5 or 20 h), the growth state (confluent or subconfluent) and the organism (mouse or human).
(§3) The substances were dissolved in the culture medium and incubated with the cells for 20 h. The MTT reduction test was then carried out with fresh medium without test components.
(In general: Tetrazolium assays rely on reduction of a dye to a coloured formazan, in cell work by metabolically active cells.)

In series [4] the test system is COX-2-mRNA in MSCP 5 cells. The series is described as follows: Northern Blot analysis of COX-2 mRNA in keratinocytes. It counts as cell-based, mouse. As to conditions: subconfluent MSCP 5 cells, 500 μM, 45 mins. How it is done: Influencing of the Transcription Activity of HPK II (Human Skin Keratinocytes)
The release of prostaglandins can be influenced by inhibitors at several levels. Besides inhibition of the catalytic activity of the prostaglandin synthase proteins, another possible effect is on the messenger RNA of the cyclooxygenases. […] As a negative control, the cells were incubated for 45 minutes in medium containing only the solubilizer acetone (0.25%) but no test substance for the same recorded RNA concentration.

In series [5] the test system is mouse MSCP 5 keratinocytes. Nature of the series: Cytotoxicity, MTT test in mouse skin keratinocytes. It counts as cell-based. Conditions: concentrations showing inhibition of prostaglandin synthesis, incubation 1.5 or 20 h, confluent or subconfluent.
Text: as §1, §2, §3

As to `CS(=O)(=O)Nc1ccc([N+](=O)[O-])cc1OC1CCCCC1` [NS398], the “reduction of prostaglandin synthesis” value in series [1] is recorded as 85%.
`OCc1ccccc1O[C@@H]1O[C@H](CO)[C@@H](O)[C@H](O)[C@H]1O` [Salicin, [2-(hydroxymethyl)phenyl]-β-D-glucopyranoside]: the HLB value result in series [2] is “about 12”.
Take `O=C(Cc1ccc(O)cc1)OC[C@H]1O[C@@H](Oc2ccccc2CO)[C@H](O)[C@@H](O)[C@@H]1O` [p-OH-phenyl acetyl salicin, 6-O-p-OH-phenylacetyl-([2-hydroxymethyl)phenyl]-β-D-glucopyranoside]: in series [3], the “toxicity to the cells (MTT test)” value was “non-toxic” and the “influence on the vitality of skin cells (keratinocytes), FIG. 1” value is “minimal”. Also, the “COX-2-mRNA steady state concentration by comparison with untreated cells” value in series [4] is “greatly reduced”. Besides, in series [5], the “toxicity to the cells (MTT test)” value is recorded as “non-toxic”.
Take `O=C(CCc1ccccc1)OC[C@H]1O[C@@H](Oc2ccccc2CO)[C@H](O)[C@@H](O)[C@@H]1O` [phenylpropionyl salicin, 6-O-phenylpropionyl-[2-(hydroxymethyl)phenyl]-β-D-glucopyranoside]: in series [3], the “toxicity to the cells (MTT test)” value is listed as “non-toxic” and the “influence on the vitality of skin cells (keratinocytes), FIG. 1” value is reported as “minimal”. The “toxicity to the cells (MTT test)” value in series [5] is reported as “non-toxic”.
